Test results reported in patent US12220395B2, “Intermittent endurance capacity improving agent or blood pH elevating agent” (AJINOMOTO CO., INC., priority 2018, dated 2025).

How the values were obtained:
C57BL/6J male mice [1] = test: mouse YO-YO test (intermittent endurance capacity, treadmill); type: in vivo; settings: 6-week-old mice; oral aqueous solution 1 to 2 g/kg; YO-YO test from 30 min after administration; compared to water (negative control); FIG. 1
Method: After ingesting a test substance into 6-week-old C57BL/6J male mice, a mouse YO-YO test was conducted to evaluate an intermittent endurance capacity improving effect of the test substance using the intermittent endurance capacity of each individual as an index. As the test substance, 20 kinds of amino acids (or salts thereof) were used.
Preliminary running was performed on the mice one week before the main test. […] Unable to run was judged when the mouse could not keep up with the running speed. […] Grouping was performed such that the number of running sets and body weight of each individual obtained in the preliminary running were about the same for each group.
In the week following the preliminary running, the mice evaluated for the intermittent endurance capacity were orally administered with an aqueous solution containing a test substance in a dose of 1 to 2 g/kg mouse body weight, or water (negative control) at 20 mL/kg mouse body weight. […] From 30 min after the oral administration, the above-mentioned YO-YO test was performed to evaluate the effect of the test substance on the number of runnable sets of each individual. […]

C57BL/6J male mice [2] = test: increase in mouse plasma pH by oral administration; settings: for blood (plasma) pH increasing effect, time course: 7- to 9-week-old mice, aspartic acid 1 g/kg, blood sampled 30, 60, 120 min after administration, i-STAT, FIGS. 2 and 3

Compound: N[C@@H](Cc1ccc(O)cc1)C(=O)O [tyrosine]
- increase in the number of runnable sets (intermittent endurance capacity improving effect) (C57BL/6J male mice [1]): significantly increased the number of runnable sets

Compound: O=C([O-])O.[Na+] [sodium hydrogen carbonate]
- blood (plasma) pH increasing effect, time course (C57BL/6J male mice [2]): the pH increasing effect disappeared rapidly thereafter
- time of peak of the pH increasing effect (C57BL/6J male mice [2]; plasma pH, mice, FIG. 2): 0.5 hr

Compound: N[C@@H](CC(=O)O)C(=O)O [aspartic acid]
- increase in the number of runnable sets (intermittent endurance capacity improving effect) (C57BL/6J male mice [1]): significantly increased the number of runnable sets
- blood (plasma) pH increasing effect, time course (C57BL/6J male mice [2]): affords an effect of increasing blood pH even after 0.5 hr to 2 hr from the administration
